According to BindingDB's records for doi:10.1021/jm980217s (Abbott Laboratories, 1998):
pIC50: −log10 of the molar value.

Experiment: Binding affinity for endothelin B receptor by measuring its ability to displace [125I]-ET-3 from porcine cerebellar tissue

| SMILES | pIC50 |
| --- | --- |
| CCCCN(CCCC)C(=O)CN1C[C@H](c2ccc3c(c2)OCO3)[C@@H](C(=O)O)[C@@H]1CCN1C(=O)CCC1=O [(2S,3R,4S)-4-Benzo[1,3]dioxol-5-yl-1-dibutylcarbamoylmethyl-2-[2-(2,5-dioxo-pyrrolidin-1-yl)-ethyl]-pyrrolidine-3-carboxylic acid] | < 4.00 |
| CCCCN(CCCC)C(=O)CN1C[C@H](c2ccc3c(c2)OCO3)[C@@H](C(=O)O)[C@@H]1CCc1ccco1 [(2S,3R,4S)-4-Benzo[1,3]dioxol-5-yl-1-dibutylcarbamoylmethyl-2-(2-furan-2-yl-ethyl)-pyrrolidine-3-carboxylic acid] | 4.33 |
| C=CCCC[C@H]1[C@H](C(=O)O)[C@@H](c2ccc3c(c2)OCO3)CN1CC(=O)N(CCCC)CCCC [(2S,3R,4S)-4-Benzo[1,3]dioxol-5-yl-1-dibutylcarbamoylmethyl-2-pent-4-enyl-pyrrolidine-3-carboxylic acid] | 4.22 |
| CCCCN(CCCC)C(=O)CN1C[C@H](c2ccc3c(c2)OCO3)[C@@H](C(=O)O)[C@@H]1CCc1ncco1 [(2S,3R,4S)-4-Benzo[1,3]dioxol-5-yl-1-dibutylcarbamoylmethyl-2-(2-oxazol-2-yl-ethyl)-pyrrolidine-3-carboxylic acid] | < 4.00 |
| CCCCN(CCCC)C(=O)CN1C[C@H](c2ccc3c(c2)OCO3)[C@@H](C(=O)O)[C@@H]1CCC1CCCO1 (stereo partly drawn) [(2S,3R,4S)-4-Benzo[1,3]dioxol-5-yl-1-dibutylcarbamoylmethyl-2-[2-(tetrahydro-furan-2-yl)-ethyl]-pyrrolidine-3-carboxylic acid] | < 4.00 |
| CCCCN(CCCC)C(=O)CN1C[C@H](c2ccc3c(c2)OCO3)[C@@H](C(=O)O)[C@@H]1CCC1OC(C)C(C)O1 (stereo partly drawn) [(2S,3R,4S)-4-Benzo[1,3]dioxol-5-yl-1-dibutylcarbamoylmethyl-2-[2-(4,5-dimethyl-[1,3]dioxolan-2-yl)-ethyl]-pyrrolidine-3-carboxylic acid] | 4.32 |
| CCCCN(CCCC)C(=O)CN1C[C@H](c2ccc3c(c2)OCO3)[C@@H](C(=O)O)[C@@H]1CCN1CCCC1=O [(2S,3R,4S)-4-Benzo[1,3]dioxol-5-yl-1-dibutylcarbamoylmethyl-2-[2-(2-oxo-pyrrolidin-1-yl)-ethyl]-pyrrolidine-3-carboxylic acid] | 4.18 |

Stronger by pIC50, values ahead:

| pIC50 | SMILES |
| --- | --- |
| 4.39 | CCCCN(CCCC)C(=O)CN1C[C@H](c2ccc3c(c2)OCO3)[C@@H](C(=O)O)[C@@H]1CCn1ccccc1=O [(2S,3R,4S)-4-Benzo[1,3]dioxol-5-yl-1-dibutylcarbamoylmethyl-2-[2-(2-oxo-2H-pyridin-1-yl)-ethyl]-pyrrolidine-3-carboxylic acid] |
| 4.59 | CCCCN(CCCC)C(=O)CN1C[C@H](c2ccc3c(c2)OCO3)[C@@H](C(=O)O)[C@@H]1CCc1ccoc1 [(2S,3R,4S)-4-Benzo[1,3]dioxol-5-yl-1-dibutylcarbamoylmethyl-2-(2-furan-3-yl-ethyl)-pyrrolidine-3-carboxylic acid] |
| 4.54 | CCCCN(CCCC)C(=O)CN1C[C@H](c2ccc3c(c2)OCO3)[C@@H](C(=O)O)[C@@H]1CCn1cccn1 [(2S,3R,4S)-4-Benzo[1,3]dioxol-5-yl-1-dibutylcarbamoylmethyl-2-(2-pyrazol-1-yl-ethyl)-pyrrolidine-3-carboxylic acid] |
| 4.44 | C=C(C)CCC[C@H]1[C@H](C(=O)O)[C@@H](c2ccc3c(c2)OCO3)CN1CC(=O)N(CCCC)CCCC [(2S,3R,4S)-4-Benzo[1,3]dioxol-5-yl-1-dibutylcarbamoylmethyl-2-(4-methyl-pent-4-enyl)-pyrrolidine-3-carboxylic acid] |
| 4.45 | CCCCN(CCCC)C(=O)CN1C[C@H](c2ccc3c(c2)OCO3)[C@@H](C(=O)O)[C@@H]1CCCC(C)C [(2S,3R,4S)-4-Benzo[1,3]dioxol-5-yl-1-dibutylcarbamoylmethyl-2-(4-methyl-pentyl)-pyrrolidine-3-carboxylic acid] |
